Measured values taken from patent publication US6576648B2, “Compound with growth hormone releasing properties” (Novo Nordisk A/S, priority 1999, dated 2003).
Non-standard residues stand in square brackets, D forms with d. Residues, ends and D or L forms follow the SMILES beside them.

Tests used:
[1] = Oral bioavailability, pharmacokinetics in fasted Beagle dogs; format: in vivo; conditions: intravenous and oral administration in 5% glucose solution
Experimental: The pharmacokinetics of the compound can be investigated in fasted Beagle dogs.
Intravenous and oral administration of the test compound, in 5% glucose solution, was separated by a one weeks washout.
Blood samples were collected immediately before drug administration (time zero) and than 0.08, 0.25, 0.50, 0.75, 1.0, 1.5, 2.0, 3.0, 4.0, 5.0, and 6.0 hours after administration.
The plasma samples were stored frozen (<−18° C.) pending analysis.
An HPLC method with solid phase extraction and UV detection was used for the quantification of the compound in plasma.
The pharmacokinetic parameters for compounds were calculated by non-compartmental methods using the PC based pharmacokinetic software WinNonlin, version 1.1 (Scientific Consulting Inc., Apex, N.C., USA).

[2] = system: endogenous growth hormone release; assay: Release of endogenous growth hormone in vivo
[3] = system: Pancreatic enzyme mix: trypsin, chymotrypsin and elastase; assay: Metabolic stability in pancreatic enzyme mix (ESMS, SIM of molecular ion); conditions: chymotrypsin and elastase 0.025 mg/ml, 100 mM ammoniumbicarbonate pH 8.0, 37° C., 24 h, decrease in SIM signal
Experimental: (§1) The compound is dissolved at a concentration of 1 mg/ml in water. 25 ml of this solution is added to 175 ml of the respective enzyme-solution (resulting in an enzyme:substrate ratio (w/w) of approximately 1:5). The solution is left at 37° C. overnight. 10 ml of the various degradation solutions is analyzed against a corresponding zero-sample using flow injection electrospray mass spectrometry (ESMS) with selected ion monitoring of the molecular ion. If the signal has decreased more than 20% compared to the zero-sample, the remainder of the solution is analyzed by HPLC and mass spectrometry in order to identify the extent and site(s) of degradation precisely.
(§2) Enzymes (trypsin, chymotrypsin, elastase aminopeptidase M and carboxypeptidase Y and B) were all purchased from Boehringer Mannheim GmbH (Mannheim, Germany) […]
(§3) Quantification of the compound (before and after degradation) was done on the API III instrument using single ion monitoring of the molecular ion in question with flow injection of the analyte. […]
(§4) Identification of degradation products furthermore involved the use of plasma desorption mass spectrometry (PDMS) with sample application on nitrocellulose coated targets and standard instrumental settings. The accuracy of the hereby determined masses is generally better than 0.1%. […]

[4] = system: Carboxypeptidase mix: carboxypeptidase Y and B; assay: Metabolic stability in carboxypeptidase mix (ESMS, SIM of molecular ion); conditions: carboxypeptidase Y and B 0.025 mg/ml, 50 mM ammoniumacetate pH 4.5, 37° C., 24 h, decrease in SIM signal
Experimental: as §1, §2, §3, §4

| Molecule | oral availability [1] | ability to release endogenous growth hormone in vivo [2] | Stability in Pan. Enzyme mix [3] | Stability in Carboxypeptidase mix [4] |
| --- | --- | --- | --- | --- |
| CN(C)N(C)C(=O)[C@@]1(Cc2ccccc2)CCCN(C(=O)[C@@H](Cc2c[nH]c3ccccc23)NC(=O)C(C)(C)N)C1 [Example 1, 2-Amino-N-[(1R)-2-[(3R)-3-benzyl-3-(N,N′,N′-trimethylhydrazinocarbonyl)piperidin-1-yl]-1-(1H-indol-3-ylmethyl)-2-oxoethyl]-2-methylpropionamide] | about 50% | possess the ability to release endogenous growth hormone in vivo | – | – |
| GHRP-2 | – | – | − (Unstable (more than 20% decrease in SIM signal after 24 h in degradation solution)) | − (Unstable (more than 20% decrease in SIM signal after 24 h in degradation solution)) |
| C[C@H](NC(=O)[C@@H](Cc1c[nH]c2ccccc12)NC(=O)[C@@H](N)Cc1c[nH]cn1)C(=O)N[C@@H](Cc1c[nH]c2ccccc12)C(=O)N[C@H](Cc1ccccc1)C(=O)N[C@@H](CCCCN)C(N)=O [GHRP-6] (H-H[dW]AW[dF]K-NH2) | – | – | − (Unstable (more than 20% decrease in SIM signal after 24 h in degradation solution)) | − (Unstable (more than 20% decrease in SIM signal after 24 h in degradation solution)) |
